Results taken from patent US12559492B2, “BRAF degraders” (C4 Therapeutics, Inc., priority 2020, dated 2026).

Biological target: BRAF^V600E protein (Homo sapiens, UniProt P15056, V600E)
Test: HiBiT cellular BRAF V600E degradation assay
Format: cell-based
Settings: 24 h incubation; for DC50: A375.10 cells (HiBiT tag knocked in at N-terminal of BRAF V600E), concentration at which 50% of total cellular BRAF V600E is degraded; for Emax: read-out: HiBit 24 h Emax
[1] = A375.10 cells, Emax = amount of residual protein remaining in the cell after compound treatment

Chain of BRAF^V600E protein (P15056 whole entry V600E): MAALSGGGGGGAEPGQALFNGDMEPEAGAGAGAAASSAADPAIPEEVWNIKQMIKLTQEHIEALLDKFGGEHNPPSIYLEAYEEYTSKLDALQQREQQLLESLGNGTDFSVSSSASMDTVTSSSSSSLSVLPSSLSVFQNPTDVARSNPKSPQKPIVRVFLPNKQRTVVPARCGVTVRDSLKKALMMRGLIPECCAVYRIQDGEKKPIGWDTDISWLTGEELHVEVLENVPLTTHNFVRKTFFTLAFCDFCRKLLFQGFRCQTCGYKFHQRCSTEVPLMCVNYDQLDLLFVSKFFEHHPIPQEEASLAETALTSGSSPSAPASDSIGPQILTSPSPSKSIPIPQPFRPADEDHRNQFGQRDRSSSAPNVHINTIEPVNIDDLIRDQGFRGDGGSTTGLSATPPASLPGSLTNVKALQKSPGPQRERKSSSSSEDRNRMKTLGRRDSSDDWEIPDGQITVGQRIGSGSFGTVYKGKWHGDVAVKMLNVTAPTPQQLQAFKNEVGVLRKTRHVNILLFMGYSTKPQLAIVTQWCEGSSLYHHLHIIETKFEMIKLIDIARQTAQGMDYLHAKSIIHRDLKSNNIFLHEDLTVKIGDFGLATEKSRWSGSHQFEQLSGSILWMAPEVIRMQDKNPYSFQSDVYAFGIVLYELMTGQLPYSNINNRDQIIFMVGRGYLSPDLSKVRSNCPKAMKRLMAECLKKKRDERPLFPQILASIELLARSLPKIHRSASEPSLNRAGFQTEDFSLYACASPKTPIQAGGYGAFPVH

Row | Compound | DC50 [nM] | Emax [1] [%] | HiBit 24 h Emax [1] [%]
1 | CCN(C)S(=O)(=O)Nc1ccc(F)c(C(=O)c2c[nH]c3ncc(-c4ccc(CN5CCN(C(=O)CN6CCC(c7ccc(NC8CCC(=O)NC8=O)cc7)CC6)CC5)nc4)cc23)c1F (stereo not drawn) [Example A9, 5-[6-[[4-[2-[4-[4-[(2,6-Dioxopiperidin-3-yl)amino]phenyl]piperidin-1-yl]acetyl]piperazin-1-yl]methyl]pyridin-3-yl]-3-[3-[[ethyl(methyl)sulfamoyl]amino]-2,6-difluorobenzoyl]-1H-pyrrolo[2,3-b]pyridine] | 30 | 14 | 
2 | CCN(C)S(=O)(=O)Nc1ccc(F)c(C(=O)c2c[nH]c3ncc(-c4ccc(CN5CCN(C(=O)CN6CCN(c7ccc(NC8CCC(=O)NC8=O)cc7)CC6)CC5)nc4)cc23)c1F (stereo not drawn) [Example A12, 5-[6-[[4-[2-[4-[4-[(2,6-Dioxopiperidin-3-yl)amino]phenyl]piperazin-1-yl]acetyl]piperazin-1-yl]methyl]pyridin-3-yl]-3-[3-[[ethyl(methyl)sulfamoyl]amino]-2,6-difluorobenzoyl]-1H-pyrrolo[2,3-b]pyridine] | 74 | 24 | 
3 | CCN(C)S(=O)(=O)Nc1ccc(F)c(C(=O)c2c[nH]c3ncc(-c4ccc(CN5CCN(C6CCN(C(=O)CN7CCC(c8ccc(NC9CCC(=O)NC9=O)cc8)CC7)CC6)CC5)cc4)cc23)c1F (stereo not drawn) [Example A13, 5-[4-[[4-[1-[2-[4-[4-[(2,6-Dioxopiperidin-3-yl)amino]phenyl]piperidin-1-yl]acetyl]piperidin-4-yl]piperazin-1-yl]methyl]phenyl]-3-[3-[[ethyl(methyl)sulfamoyl]amino]-2,6-difluorobenzoyl]-1H-pyrrolo[2,3-b]pyridine] | 91 | 23 | 
4 | CCN(C)S(=O)(=O)Nc1ccc(F)c(C(=O)c2c[nH]c3ncc(-c4ccc(N5CCN(C(=O)CCCN6CCC(c7ccc(NC8CCC(=O)NC8=O)cc7)CC6)CC5)nc4)cc23)c1F (stereo not drawn) [Example A17, 5-[6-[4-[4-[4-[4-[(2,6-Dioxopiperidin-3-yl)amino]phenyl]piperidin-1-yl]butanoyl]piperazin-1-yl]pyridin-3-yl]-3-[3-[[ethyl(methyl)sulfamoyl]amino]-2,6-difluorobenzoyl]-1H-pyrrolo[2,3-b]pyridine] | 44 | 14 | 
5 | CCN(C)S(=O)(=O)Nc1ccc(F)c(C(=O)c2c[nH]c3ncc(-c4cnc(N5CCN(C(=O)CCCN6CCC(c7ccc(NC8CCC(=O)NC8=O)cc7)CC6)CC5)nc4)cc23)c1F (stereo not drawn) [Example A18, 5-[2-[4-[4-[4-[4-[(2,6-Dioxopiperidin-3-yl)amino]phenyl]piperidin-1-yl]butanoyl]piperazin-1-yl]pyrimidin-5-yl]-3-[3-[[ethyl(methyl)sulfamoyl]amino]-2,6-difluorobenzoyl]-1H-pyrrolo[2,3-b]pyridine] | 42 | 15 | 
6 | CCN(C)S(=O)(=O)Nc1ccc(F)c(C(=O)c2c[nH]c3ncc(-c4ccc(CN5CCC(C(=O)N6CCN(c7ccc(OC8CCC(=O)NC8=O)cc7)CC6)C5)cc4)cc23)c1F (stereo not drawn) [Example A19, 5-[4-[[3-[4-[4-(2,6-Dioxopiperidin-3-yl)oxyphenyl]piperazine-1-carbonyl]pyrrolidin-1-yl]methyl]phenyl]-3-[3-[[ethyl(methyl)sulfamoyl]amino]-2,6-difluorobenzoyl]-1H-pyrrolo[2,3-b]pyridine] | 84 | 19 | 
7 | CCN(C)S(=O)(=O)Nc1ccc(F)c(C(=O)c2c[nH]c3ncc(-c4ccc(CN5CCC(C(=O)N6CCC(c7ccc(OC8CCC(=O)NC8=O)cc7)CC6)C5)cc4)cc23)c1F (stereo not drawn) [Example A20, 5-[4-[[3-[4-[4-(2,6-Dioxopiperidin-3-yl)oxyphenyl]piperidine-1-carbonyl]pyrrolidin-1-yl]methyl]phenyl]-3-[3-[[ethyl(methyl)sulfamoyl]amino]-2,6-difluorobenzoyl]-1H-pyrrolo[2,3-b]pyridine] | 138 | 24 | 
8 | CCN(C)S(=O)(=O)Nc1ccc(F)c(C(=O)c2c[nH]c3ncc(-c4ccc(CN5CCN(C(=O)CN6CCC(c7ccc(OC8CCC(=O)NC8=O)cc7)CC6)CC5)cc4)cc23)c1F (stereo not drawn) [Example A22, 5-[4-[[4-[2-[4-[4-(2,6-Dioxopiperidin-3-yl)oxyphenyl]piperidin-1-yl]acetyl]piperazin-1-yl]methyl]phenyl]-3-[3-[[ethyl(methyl)sulfamoyl]amino]-2,6-difluorobenzoyl]-1H-pyrrolo[2,3-b]pyridine] | 77 | 20 | 

Stronger by DC50, values ahead:

Row | DC50 [nM] | Emax [1] [%] | HiBit 24 h Emax [1] [%] | Compound
9 | 15 | 13 |  | CCN(C)S(=O)(=O)Nc1ccc(F)c(C(=O)c2c[nH]c3ncc(-c4cnc(N5CCN(C(=O)CN6CCC(c7ccc(OC8CCC(=O)NC8=O)cc7)CC6)CC5)nc4)cc23)c1F (stereo not drawn) [Example A6, 5-[2-[4-[2-[4-[4-(2,6-Dioxopiperidin-3-yl)oxyphenyl]piperidin-1-yl]acetyl]piperazin-1-yl]pyrimidin-5-yl]-3-[3-[[ethyl(methyl)sulfamoyl]amino]-2,6-difluorobenzoyl]-1H-pyrrolo[2,3-b]pyridine]
10 | 16.8 | 12.9 |  | CCN(C)S(=O)(=O)Nc1ccc(F)c(C(=O)c2c[nH]c3ncc(-c4ccc(CN5CCN(CC(=O)N6CCC(c7ccc(NC8CCC(=O)NC8=O)cc7)CC6)CC5)nc4)cc23)c1F (stereo not drawn) [Example A7, 5-[6-[[4-[2-[4-[4-[(2,6-Dioxopiperidin-3-yl)amino]phenyl]piperidin-1-yl]-2-oxoethyl]piperazin-1-yl]methyl]pyridin-3-yl]-3-[3-[[ethyl(methyl)sulfamoyl]amino]-2,6-difluorobenzoyl]-1H-pyrrolo[2,3-b]pyridine;2,2,2-trifluoroacetic acid]
11 | 8.18 | 9.42 |  | CCN(C)S(=O)(=O)Nc1ccc(F)c(C(=O)c2c[nH]c3ncc(-c4ccc(N5CCN(C(=O)CN6CCC(c7ccc(NC8CCC(=O)NC8=O)cc7)CC6)CC5)nc4)cc23)c1F (stereo not drawn) [Example A8, 5-[6-[4-[2-[4-[4-[(2,6-Dioxopiperidin-3-yl)amino]phenyl]piperidin-1-yl]acetyl]piperazin-1-yl]pyridin-3-yl]-3-[3-[[ethyl(methyl)sulfamoyl]amino]-2,6-difluorobenzoyl]-1H-pyrrolo[2,3-b]pyridine]
12 | 3 | 8 |  | CCN(C)S(=O)(=O)Nc1ccc(F)c(C(=O)c2c[nH]c3ncc(-c4cnc(N5CCN(C(=O)CN6CCC(c7ccc(NC8CCC(=O)NC8=O)cc7)CC6)CC5)nc4)cc23)c1F (stereo not drawn) [Example A10, 5-[2-[4-[2-[4-[4-[(2,6-Dioxopiperidin-3-yl)amino]phenyl]piperidin-1-yl]acetyl]piperazin-1-yl]pyrimidin-5-yl]-3-[3-[[ethyl(methyl)sulfamoyl]amino]-2,6-difluorobenzoyl]-1H-pyrrolo[2,3-b]pyridine]
13 | 6.71 | 11.6 |  | CCN(C)S(=O)(=O)Nc1ccc(F)c(C(=O)c2c[nH]c3ncc(-c4ccc(N5CCN(C(=O)CN6CCN(c7ccc(NC8CCC(=O)NC8=O)cc7)CC6)CC5)nc4)cc23)c1F (stereo not drawn) [Example A11, 5-[6-[4-[2-[4-[4-[(2,6-Dioxopiperidin-3-yl)amino]phenyl]piperazin-1-yl]acetyl]piperazin-1-yl]pyridin-3-yl]-3-[3-[[ethyl(methyl)sulfamoyl]amino]-2,6-difluorobenzoyl]-1H-pyrrolo[2,3-b]pyridine]
14 | 10.6 | 9.74 |  | CCN(C)S(=O)(=O)Nc1ccc(F)c(C(=O)c2c[nH]c3ncc(-c4ccc(N5CCN(C(=O)CN6CCC(c7ccc(OC8CCC(=O)NC8=O)cc7)CC6)CC5)cc4)cc23)c1F (stereo not drawn) [Example A14, 5-[4-[4-[2-[4-[4-(2,6-Dioxopiperidin-3-yl)oxyphenyl]piperidin-1-yl]acetyl]piperazin-1-yl]phenyl]-3-[3-[[ethyl(methyl)sulfamoyl]amino]-2,6-difluorobenzoyl]-1H-pyrrolo[2,3-b]pyridine]
15 | 24 | 14 |  | CCN(C)S(=O)(=O)Nc1ccc(F)c(C(=O)c2c[nH]c3ncc(-c4ccc(N5CCN(C(=O)CCCN6CCC(c7ccc(OC8CCC(=O)NC8=O)cc7)CC6)CC5)cc4)cc23)c1F (stereo not drawn) [Example A15, 5-[4-[4-[4-[4-[4-(2,6-Dioxopiperidin-3-yl)oxyphenyl]piperidin-1-yl]butanoyl]piperazin-1-yl]phenyl]-3-[3-[[ethyl(methyl)sulfamoyl]amino]-2,6-difluorobenzoyl]-1H-pyrrolo[2,3-b]pyridine]
16 | 8 | 11 |  | CCN(C)S(=O)(=O)Nc1ccc(F)c(C(=O)c2c[nH]c3ncc(-c4cnc(N5CCN(C(=O)CN6CCN(c7ccc(NC8CCC(=O)NC8=O)cc7)CC6)CC5)nc4)cc23)c1F (stereo not drawn) [Example A16, 5-[2-[4-[2-[4-[4-[(2,6-Dioxopiperidin-3-yl)amino]phenyl]piperazin-1-yl]acetyl]piperazin-1-yl]pyrimidin-5-yl]-3-[3-[[ethyl(methyl)sulfamoyl]amino]-2,6-difluorobenzoyl]-1H-pyrrolo[2,3-b]pyridine]
17 | 21 |  | 13 | CCN(C)S(=O)(=O)Nc1ccc(F)c(C(=O)c2c[nH]c3ncc(-c4ccc(CN5CCN(CC(=O)N6CCC(c7ccc(NC8CCC(=O)NC8=O)cc7)CC6)CC5)cc4)cc23)c1F.O=C(O)C(F)(F)F (stereo not drawn) [Example A21, 5-[4-[[4-[2-[4-[4-[(2,6-Dioxopiperidin-3-yl)amino]phenyl]piperidin-1-yl]-2-oxoethyl]piperazin-1-yl]methyl]phenyl]-3-[3-[[ethyl(methyl)sulfamoyl]amino]-2,6-difluorobenzoyl]-1H-pyrrolo[2,3-b]pyridine;2,2,2-trifluoroacetic acid]
18 | 19 | 13 |  | CCN(C)S(=O)(=O)Nc1ccc(F)c(C(=O)c2c[nH]c3ncc(-c4ccc(CN5CCN(C(=O)CN6CCC(c7ccc(NC8CCC(=O)NC8=O)cc7)CC6)CC5)cc4)cc23)c1F (stereo not drawn) [Example A23, 5-[4-[[4-[2-[4-[4-[(2,6-Dioxopiperidin-3-yl)amino]phenyl]piperidin-1-yl]acetyl]piperazin-1-yl]methyl]phenyl]-3-[3-[[ethyl(methyl)sulfamoyl]amino]-2,6-difluorobenzoyl]-1H-pyrrolo[2,3-b]pyridine]
